Assay results taken from ChEMBL document CHEMBL1201862, “PubChem BioAssay data set” (2004).
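Where inhibition never reached the appropriate level, the endpoint shown equals the highest concentration tested. Otherwise, values were interpolated linearly from a five-concentration, 48-hour dose response in 96-well plates. Abbreviation: GI50, concentration required for 50% inhibition of growth.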 Active and inactive are the calls of the source. Cut-off read from the data, not from the text of the source: active = GI50 up to about 1.1 µM and inactive = higher.

Assays:
Assay in all cases: growth of human tumour cells (NCI), 48 h
SK-MEL-2 = test system: SK-MEL-2
MCF7 = test system: MCF7
Hs-578T = test system: Hs-578T
UACC-257 = test system: UACC-257
HCT-15 = test system: HCT-15
RPMI-8226 = test system: RPMI-8226
SW-620 = test system: SW-620
KM12 = test system: KM12
SF-539 = test system: SF-539
SK-MEL-28 = test system: SK-MEL-28
HT-29 = test system: HT-29
MDA-MB-231 = test system: MDA-MB-231
RXF 393 = test system: RXF 393
OVCAR-8 = test system: OVCAR-8
UACC-62 = test system: UACC-62
TK-10 = test system: TK-10
ACHN = test system: ACHN
OVCAR-4 = test system: OVCAR-4
A549 = test system: A549
HL-60 = test system: HL-60
IGROV-1 = test system: IGROV-1
NCI-H522 = test system: NCI-H522
SR = test system: SR
SK-MEL-5 = test system: SK-MEL-5
Malme-3M = test system: Malme-3M
U-251 = test system: U-251
EKVX = test system: EKVX
NCI/ADR-RES = test system: NCI/ADR-RES
HCC 2998 = test system: HCC 2998
K562 = test system: K562
M14 = test system: M14
HOP-92 = test system: HOP-92
COLO 205 = test system: COLO 205
HOP-62 = test system: HOP-62
A498 = test system: A498
SNB-75 = test system: SNB-75
CCRF-CEM = test system: CCRF-CEM
UO-31 = test system: UO-31
SF-268 = test system: SF-268
NCI-H23 = test system: NCI-H23
MDA-N = test system: MDA-N
OVCAR-3 = test system: OVCAR-3
MOLT-4 = test system: MOLT-4
NCI-H226 = test system: NCI-H226
DU-145 = test system: DU-145
NCI-H460 = test system: NCI-H460
SK-OV-3 = test system: SK-OV-3
MDA-MB-435 = test system: MDA-MB-435
LOX IMVI = test system: LOX IMVI
SF-295 = test system: SF-295
PC-3 = test system: PC-3
BT-549 = test system: BT-549
786-0 = test system: 786-0
SNB-19 = test system: SNB-19
T47D = test system: T47D
CAKI-1 = test system: CAKI-1
SN12C = test system: SN12C
HCT-116 = test system: HCT-116
OVCAR-5 = test system: OVCAR-5

## O=c1cc(-c2ccccc2)[nH]c2ccc(N3CCOCC3)cc12
SK-MEL-2
  GI50: 22.5 µM (inactive)
MCF7
  GI50: 0.0327 µM (active)
Hs-578T
  GI50: 0.0239 µM (active)
UACC-257
  GI50: > 100 µM (inactive)
HCT-15
  GI50: 0.0241 µM
RPMI-8226
  GI50: 0.065 µM (active)
SW-620
  GI50: 0.0371 µM (active)
KM12
  GI50: < 0.0171 µM (active)
SF-539
  GI50: < 0.0149 µM (active)
SK-MEL-28
  GI50: 0.0128 µM (active)
HT-29
  GI50: 0.0211 µM (active)
MDA-MB-231
  GI50: 0.0618 µM (active)
RXF 393
  GI50: 0.04 µM (active)
OVCAR-8
  GI50: 0.042 µM (active)
UACC-62
  GI50: < 0.0268 µM (active)
TK-10
  GI50: 55 µM (inactive)
ACHN
  GI50: 0.0611 µM (active)
OVCAR-4
  GI50: 20.1 µM (inactive)
A549
  GI50: 0.0773 µM (active)
HL-60
  GI50: 0.0151 µM (active)
IGROV-1
  GI50: 0.0518 µM (active)
NCI-H522
  GI50: 0.0173 µM (active)
SR
  GI50: < 0.017 µM (active)
SK-MEL-5
  GI50: < 0.0233 µM (active)
Malme-3M
  GI50: 14 µM (inactive)
U-251
  GI50: 0.0185 µM (active)
EKVX
  GI50: 53 µM (inactive)
NCI/ADR-RES
  GI50: 0.0435 µM (active)
HCC 2998
  GI50: 0.0468 µM (active)
K562
  GI50: < 0.0127 µM (active)
M14
  GI50: 0.0173 µM (active)
HOP-92
  GI50: 0.0622 µM (active)
COLO 205
  GI50: 0.0182 µM (active)
HOP-62
  GI50: 0.0241 µM (active)
A498
  GI50: 0.0413 µM (active)
SNB-75
  GI50: 0.0143 µM (active)
CCRF-CEM
  GI50: 0.0144 µM (active)
UO-31
  GI50: 13.2 µM (inactive)
SF-268
  GI50: 0.0407 µM (active)
NCI-H23
  GI50: 0.0414 µM (active)
MDA-N
  GI50: < 0.01 µM (active)
OVCAR-3
  GI50: 0.0148 µM (active)
MOLT-4
  GI50: 0.104 µM (active)
NCI-H226
  GI50: 0.0319 µM (active)
DU-145
  GI50: 0.038 µM (active)
NCI-H460
  GI50: 0.0465 µM (active)
SK-OV-3
  GI50: 0.0327 µM (active)
MDA-MB-435
  GI50: < 0.01 µM (active)
LOX IMVI
  GI50: 0.0335 µM (active)
SF-295
  GI50: 0.0236 µM (active)
PC-3
  GI50: 0.0346 µM (active)
BT-549
  GI50: 23.8 µM (inactive)
786-0
  GI50: 0.0363 µM (active)
SNB-19
  GI50: 0.0434 µM (active)
T47D
  GI50: > 100 µM (inactive)
CAKI-1
  GI50: 0.0291 µM (active)
SN12C
  GI50: 0.0467 µM (active)
HCT-116
  GI50: < 0.0167 µM (active)

## CN1CCC23c4c5ccc(O)c4OC2c2[nH]c4ccccc4c2CC3(O)C1C5 (centres undefined)
SK-MEL-2
  GI50: 20.6 µM (inactive)
MCF7
  GI50: 36.3 µM (inactive)
Hs-578T
  GI50: 24.2 µM (inactive)
UACC-257
  GI50: 18.5 µM (inactive)
HCT-15
  GI50: 25.6 µM
RPMI-8226
  GI50: 19.5 µM (inactive)
SW-620
  GI50: 22.4 µM (inactive)
KM12
  GI50: 51.2 µM (inactive)
SK-MEL-28
  GI50: 13.7 µM (inactive)
HT-29
  GI50: 31.9 µM (inactive)
MDA-MB-231
  GI50: 31.5 µM (inactive)
RXF 393
  GI50: 23.5 µM (inactive)
OVCAR-8
  GI50: 54.8 µM (inactive)
UACC-62
  GI50: 23.4 µM (inactive)
TK-10
  GI50: 18.9 µM (inactive)
ACHN
  GI50: 24.4 µM (inactive)
OVCAR-4
  GI50: 38.5 µM (inactive)
A549
  GI50: 53 µM (inactive)
IGROV-1
  GI50: 66.4 µM (inactive)
NCI-H522
  GI50: 37 µM (inactive)
SR
  GI50: 26.6 µM (inactive)
SK-MEL-5
  GI50: 13.5 µM (inactive)
Malme-3M
  GI50: 20.6 µM (inactive)
U-251
  GI50: 22.5 µM (inactive)
EKVX
  GI50: 92.9 µM (inactive)
NCI/ADR-RES
  GI50: > 100 µM (inactive)
HCC 2998
  GI50: 17.5 µM (inactive)
K562
  GI50: 14 µM (inactive)
M14
  GI50: 17.7 µM (inactive)
HOP-92
  GI50: 16.3 µM (inactive)
COLO 205
  GI50: 17.1 µM (inactive)
HOP-62
  GI50: > 100 µM (inactive)
A498
  GI50: 18.8 µM (inactive)
SNB-75
  GI50: 36.7 µM (inactive)
CCRF-CEM
  GI50: 22 µM (inactive)
UO-31
  GI50: 15.2 µM (inactive)
SF-268
  GI50: 32.1 µM (inactive)
NCI-H23
  GI50: > 100 µM (inactive)
MDA-N
  GI50: 20 µM (inactive)
OVCAR-3
  GI50: 42.6 µM (inactive)
MOLT-4
  GI50: 18.6 µM (inactive)
DU-145
  GI50: 97.7 µM (inactive)
NCI-H460
  GI50: 29.2 µM (inactive)
SK-OV-3
  GI50: > 100 µM (inactive)
MDA-MB-435
  GI50: 18.2 µM (inactive)
LOX IMVI
  GI50: 21.5 µM (inactive)
SF-295
  GI50: 52.4 µM (inactive)
OVCAR-5
  GI50: > 100 µM (inactive)
PC-3
  GI50: 41.6 µM (inactive)
BT-549
  GI50: 45.1 µM (inactive)
786-0
  GI50: 18.7 µM (inactive)
SNB-19
  GI50: 65.5 µM (inactive)
T47D
  GI50: 20.8 µM (inactive)
CAKI-1
  GI50: 47.1 µM (inactive)
SN12C
  GI50: 70.5 µM (inactive)
HCT-116
  GI50: 35.4 µM (inactive)
